Data taken from patent US10570129B2 (Zoetis Services LLC, priority 2015, dated 2020).

How the values were obtained:
[1] = test system: Haemonchus contortus L3; assay: microbe, parasite or virus in culture; format: cell-based; conditions: Haemonchus contortus, 96 h, read-out: HcL3 Minimal Effective Concentration (MEC)
[2] = test system: D. immitis microfilariae; assay: Dirofilaria immitis, microfilariae (DiMF) in vitro motility assay; format: cell-based; conditions: Dirofilaria immitis, 72 h, read-out: DiMF minimally effective dose (MEC)

| Structure (SMILES) | minimal effective concentration [1] [µM] | minimal effective concentration [2] [µM] |
| --- | --- | --- |
| O=C(NCc1ccnc(F)c1)n1c2c(c3c(OC(F)(F)F)cccc31)CN(C/C=C/c1ccc(Cl)cc1)CC2 [Example 379a, (E)-2-(3-(4-chlorophenyl)allyl)-N-((2-fluoropyridin-4-yl)methyl)-9-(trifluoromethoxy)-1,2,3,4-tetrahydro-5H-pyrido[4,3-b]indole-5-carboxamide] | > 100 | 3.3 |
| N#Cc1ccc2c(c1)c1c(n2C(=O)NCc2ccnc(Cl)c2)CCN(C/C=C/c2ccc(Cl)c(Cl)c2)C1 [Example 93, (E)-N-((2-chloropyridin-4-yl)methyl)-8-cyano-2-(3-(3,4-dichlorophenyl)allyl)-1,2,3,4-tetrahydro-5H-pyrido[4,3-b]indole-5-carboxamide] | 0.7 | 2.4 |
| NC(=O)c1ccc2c3c(n(C(=O)NCc4ccnc(Cl)c4)c2c1)CCN(C/C=C/c1ccc(Cl)cc1)C3 [Example 464, (E)-2-(3-(4-chlorophenyl)allyl)-N^5-((2-chloropyridin-4-yl)methyl)-1,2,3,4-tetrahydro-5H-pyrido[4,3-b]indole-5,7-dicarboxamide] | 3.3 | 7.6 |
| O=C(NCc1ccnc(Cl)c1)n1c2c(c3cc(Cl)ccc31)CN(C/C=C/c1ccc(Cl)c(Cl)c1)CC2 [Example 243, (E)-8-chloro-N-((2-chloropyridin-4-yl)methyl)-2-(3-(3,4-dichlorophenyl)allyl)-1,2,3,4-tetrahydro-5H-pyrido[4,3-b]indole-5-carboxamide] | 1.3 | 10 |
| N#Cc1ccc(/C=C/CN2CCc3c(c4c(OC(F)(F)F)cccc4n3C(=O)NCc3ccnc(Cl)c3)C2)cc1 [Example 352, (E)-N-((2-chloropyridin-4-yl)methyl)-2-(3-(4-cyanophenyl)allyl)-9-(trifluoromethoxy)-1,2,3,4-tetrahydro-5H-pyrido[4,3-b]indole-5-carboxamide] | 33 | 5.7 |
| N#Cc1cc2c3c(n(C(=O)NCc4ccnc(Cl)c4)c2cc1C(F)(F)F)CCN(C/C=C/c1ccc(Cl)cc1)C3 [Example 171, (E)-2-(3-(4-chlorophenyl)allyl)-N-((2-chloropyridin-4-yl)methyl)-8-cyano-7-(trifluoromethyl)-1,2,3,4-tetrahydro-5H-pyrido[4,3-b]indole-5-carboxamide] | 0.5 | 10 |
| COc1cc(CNC(=O)n2c3c(c4cc(C#N)ccc42)CN(C/C=C/c2ccc(F)c(Cl)c2)CC3)ccn1 [Example 68, (E)-2-(3-(3-chloro-4-fluorophenyl)allyl)-8-cyano-N-((2-methoxypyridin-4-yl)methyl)-1,2,3,4-tetrahydro-5H-pyrido[4,3-b]indole-5-carboxamide] | 0.01 | 0.03 |
| N#Cc1ccc2c(c1)c1c(n2C(=O)NCc2ccnc(F)c2)CCN(C/C=C/c2ccc(Cl)cc2F)C1 [Example 104, (E)-2-(3-(4-chloro-2-fluorophenyl)allyl)-8-cyano-N-((2-fluoropyridin-4-yl)methyl)-1,2,3,4-tetrahydro-5H-pyrido[4,3-b]indole-5-carboxamide] | 0.1 | 3.2 |
| O=C(NCc1ccnc(Cl)c1)n1c2c(c3cc(Cl)c(Cl)cc31)CN(C/C=C/c1ccc(Cl)c(F)c1)CC2 [Example 274, (E)-7,8-dichloro-2-(3-(4-chloro-3-fluorophenyl)allyl)-N-((2-chloropyridin-4-yl)methyl)-1,2,3,4-tetrahydro-5H-pyrido[4,3-b]indole-5-carboxamide] | 1.8 | 33 |
| O=C(NCc1ccnc(Cl)c1)n1c2c(c3cc(Br)ccc31)CN(C/C=C/c1ccc(F)cc1F)CC2 [Example 181, (E)-8-bromo-N-((2-chloropyridin-4-yl)methyl)-2-(3-(2,4-difluorophenyl)allyl)-1,2,3,4-tetrahydro-5H-pyrido[4,3-b]indole-5-carboxamide] | 0.2 | 32.3 |
| O=C(NCc1ccnc(Cl)c1)n1c2c(c3cc(F)c(Cl)cc31)CN(C/C=C/c1ccc(F)cc1F)CC2 [Example 299, (E)-7-chloro-N-((2-chloropyridin-4-yl)methyl)-2-(3-(2,4-difluorophenyl)-allyl)-8-fluoro-1,2,3,4-tetrahydro-5H-pyrido[4,3-b]indole-5-carboxamide] | 0.4 | 1.8 |
| CSc1ccc2c(c1)c1c(n2C(=O)NCc2ccnc(Cl)c2)CCN(C/C=C/c2ccc(F)cc2)C1 [Example 448, (E)-N-((2-chloropyridin-4-yl)methyl)-2-(3-(4-fluorophenyl)allyl)-8-(methylthio)-1,2,3,4-tetrahydro-5H-pyrido[4,3-b]indole-5-carboxamide] | 1.3 | 3.3 |
| O=C(NCc1ccnc(Cl)c1)n1c2c(c3ccc(Cl)cc31)CN(C/C=C/c1ccc(Cl)cc1)CC2 [Example 213, (E)-7-chloro-2-(3-(4-chlorophenyl)allyl)-N-((2-chloropyridin-4-yl)methyl)-1,2,3,4-tetrahydro-5H-pyrido[4,3-b]indole-5-carboxamide] | 0.3 | 3.3 |
| O=C(NCc1ccnc(F)c1)n1c2c(c3cc(-c4cccc(Cl)c4)ccc31)CN(C/C=C/c1ccc(Cl)cc1)CC2 [Example 462, (E)-8-(3-chlorophenyl)-2-(3-(4-chlorophenyl)allyl)-N-((2-fluoropyridin-4-yl)methyl)-1,2,3,4-tetrahydro-5H-pyrido[4,3-b]indole-5-carboxamide] | > 100 | > 100 |
| O=C(NCc1ccnc(Cl)c1)n1c2c(c3ccc(Cl)cc31)CN(C/C=C/c1ccc(C(F)(F)F)cn1)CC2 [Example 206, (E)-7-chloro-N-((2-chloropyridin-4-yl)methyl)-2-(3-(5-(trifluoromethyl)-pyridin-2-yl)allyl)-1,2,3,4-tetrahydro-5H-pyrido[4,3-b]indole-5-carboxamide] | 0.2 | 3.3 |
| O=C(NCc1ccnc(Cl)c1)n1c2c(c3cc(Cl)c(Cl)cc31)CN(C/C=C/c1ccc(OC(F)(F)F)cc1)CC2 [Example 284, (E)-7,8-dichloro-N-((2-chloropyridin-4-yl)methyl)-2-(3-(4-(trifluoro-methoxy)phenyl)allyl)-1,2,3,4-tetrahydro-5H-pyrido[4,3-b]indole-5-carboxamide] | > 100 | 10 |
| Cc1ccc2c(c1)c1c(n2C(=O)NCc2ccnc(Cl)c2)CCN(C/C=C/c2ccc(OC(F)(F)F)cc2)C1 [Example 434, (E)-N-((2-chloropyridin-4-yl)methyl)-8-methyl-2-(3-(4-(trifluoromethoxy)-phenyl)allyl)-1,2,3,4-tetrahydro-5H-pyrido[4,3-b]indole-5-carboxamide] | 3.3 | 5.7 |
| O=C(NCc1ccnc(Cl)c1)n1c2c(c3cc(F)ccc31)CN(C/C=C/c1ccc(Cl)c(Cl)c1)CC2 [Example 167, (E)-N-((2-chloropyridin-4-yl)methyl)-2-(3-(3,4-dichlorophenyl)allyl)-8-fluoro-1,2,3,4-tetrahydro-5H-pyrido[4,3-b]indole-5-carboxamide] | 0.3 | 33 |
| N#Cc1ccc2c3c(n(C(=O)NCc4ccnc(F)c4)c2c1)CCN(C/C=C/c1cc(F)c(Cl)c(F)c1)C3 [Example 50, (E)-2-(3-(4-chloro-3,5-difluorophenyl)allyl)-7-cyano-N-((2-fluoropyridin-4-yl)methyl)-1,2,3,4-tetrahydro-5H-pyrido[4,3-b]indole-5-carboxamide] | 1.8 | 10 |
| Cc1ccc2c(c1)c1c(n2C(=O)NCc2ccnc(Cl)c2)CCN(C/C=C/c2ccc(C#N)cc2)C1 [Example 430, (E)-N-((2-chloropyridin-4-yl)methyl)-2-(3-(4-cyanophenyl)allyl)-8-methyl-1,2,3,4-tetrahydro-5H-pyrido[4,3-b]indole-5-carboxamide] | 1 | > 100 |
| CSc1ccc2c(c1)c1c(n2C(=O)NCc2ccnc(Cl)c2)CCN(C/C=C/c2ccc(F)c(F)c2)C1 [Example 446, (E)-N-((2-chloropyridin-4-yl)methyl)-2-(3-(3,4-difluorophenyl)allyl)-8-(methylthio)-1,2,3,4-tetrahydro-5H-pyrido[4,3-b]indole-5-carboxamide] | 0.5 | 3.3 |
| N#Cc1ccc2c(c1)c1c(n2C(=O)NCc2ccnc(Cl)c2)CCN(C/C=C/c2ccc(F)cc2Br)C1 [Example 94, (E)-2-(3-(2-bromo-4-fluorophenyl)allyl)-N-((2-chloropyridin-4-yl)methyl)-8-cyano-1,2,3,4-tetrahydro-5H-pyrido[4,3-b]indole-5-carboxamide] | 0.1 | > 100 |
| N#Cc1ccc(/C=C/CN2CCc3c(c4cc(Br)ccc4n3C(=O)NCc3ccnc(F)c3)C2)cc1F [Example 189, (E)-8-bromo-2-(3-(4-cyano-3-fluorophenyl)allyl)-N-((2-fluoropyridin-4-yl)methyl)-1,2,3,4-tetrahydro-5H-pyrido[4,3-b]indole-5-carboxamide] | 0.3 | 10.4 |
| CS(=O)(=O)c1ccc2c(c1)c1c(n2C(=O)NCc2ccnc(Cl)c2)CCN(C/C=C/c2ccc(Cl)c(F)c2)C1 [Example 455, (E)-2-(3-(4-chloro-3-fluorophenyl)allyl)-N-((2-chloropyridin-4-yl)methyl)-8-(methylsulfonyl)-1,2,3,4-tetrahydro-5H-pyrido[4,3-b]indole-5-carboxamide] | 0.7 | 5.7 |
